Consider two compounds from ChEMBL document CHEMBL5096210, “Discovery of Betulinic Acid Derivatives as Potent Intestinal Farnesoid X Receptor Antagonists to Ameliorate Nonalcoholic Steatohepatitis” (J Med Chem, 2022).

Data set [1] is described as follows: Cytotoxicity against HEK293T cells cotransfected with pCMV-Script-hFXR/pGL4.11-hSHP-Luciferase incubated for 24 hrs in presence of GW4064 by celltiter-blue cell viability assay. To be noted: human. Type of data set: toxicity, cell-based, HEK-293T. On the technique in general: Resazurin is reduced to fluorescent resorufin, in cell work by metabolically active cells.

Data set [2] concerns the target T1, Bile acid receptor (Homo sapiens) (UniProt Q96RI1).
T1 sequence (whole entry): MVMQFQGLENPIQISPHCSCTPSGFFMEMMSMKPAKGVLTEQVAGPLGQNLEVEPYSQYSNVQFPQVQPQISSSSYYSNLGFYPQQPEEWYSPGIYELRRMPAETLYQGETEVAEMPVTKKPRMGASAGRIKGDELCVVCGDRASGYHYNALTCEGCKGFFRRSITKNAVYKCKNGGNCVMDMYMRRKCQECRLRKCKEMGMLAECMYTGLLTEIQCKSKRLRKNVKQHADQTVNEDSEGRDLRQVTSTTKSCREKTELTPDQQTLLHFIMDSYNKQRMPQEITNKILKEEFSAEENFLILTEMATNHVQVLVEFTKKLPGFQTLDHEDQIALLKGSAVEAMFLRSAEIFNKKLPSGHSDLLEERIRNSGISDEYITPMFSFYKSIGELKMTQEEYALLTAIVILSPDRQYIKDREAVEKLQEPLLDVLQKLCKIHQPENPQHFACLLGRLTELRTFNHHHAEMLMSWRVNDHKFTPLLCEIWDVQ
Description: Agonist activity against FXR (unknown origin) at upto 100 uM. The conditions noted are these: filed as agonist.

Data set [3] concerns the target T2, Bile acid receptor (Homo sapiens, UniProt Q96RI1).
T2 sequence (Q96RI1 whole entry): T1 sequence (whole entry)
Description: Antagonist activity at FXR (unknown origin) expressed in HEK293T cells cotransfected with pCMV-Script-hFXR/pGL4.11-hSHP-Luciferase incubated for 24 hrs in presence of GW4064 by Steady-glo luciferase assay. Type of data set: cell-based.

Data set [4] concerns the target T3, G-protein coupled bile acid receptor 1 (Homo sapiens, UniProt Q8TDU6).
T3 sequence (Q8TDU6 whole entry): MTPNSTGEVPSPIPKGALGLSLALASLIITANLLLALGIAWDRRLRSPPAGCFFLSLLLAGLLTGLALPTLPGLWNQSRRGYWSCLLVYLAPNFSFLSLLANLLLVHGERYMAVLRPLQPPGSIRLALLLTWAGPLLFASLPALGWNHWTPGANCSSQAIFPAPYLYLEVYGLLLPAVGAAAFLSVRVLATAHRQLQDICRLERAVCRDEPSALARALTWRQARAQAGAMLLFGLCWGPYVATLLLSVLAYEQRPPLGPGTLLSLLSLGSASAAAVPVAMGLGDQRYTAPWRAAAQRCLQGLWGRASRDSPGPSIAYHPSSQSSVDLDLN
Description: Agonist activity against TGR5 (unknown origin). In kind it is functional.

The target of data set [5] is T4, Bile acid receptor (Mus musculus) (UniProt Q60641).
T4 sequence (whole entry): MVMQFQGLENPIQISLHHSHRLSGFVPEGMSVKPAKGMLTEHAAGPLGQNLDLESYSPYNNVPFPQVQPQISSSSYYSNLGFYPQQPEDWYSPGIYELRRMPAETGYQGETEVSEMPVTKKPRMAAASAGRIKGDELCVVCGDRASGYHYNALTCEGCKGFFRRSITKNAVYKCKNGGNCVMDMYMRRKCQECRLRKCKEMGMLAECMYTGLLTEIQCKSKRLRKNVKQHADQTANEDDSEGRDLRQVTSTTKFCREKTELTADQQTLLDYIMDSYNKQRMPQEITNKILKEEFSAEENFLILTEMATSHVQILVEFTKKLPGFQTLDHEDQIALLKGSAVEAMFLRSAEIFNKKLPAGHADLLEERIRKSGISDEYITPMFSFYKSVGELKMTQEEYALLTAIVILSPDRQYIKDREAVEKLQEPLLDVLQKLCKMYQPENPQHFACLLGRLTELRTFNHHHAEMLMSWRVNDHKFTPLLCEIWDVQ
Briefly: In vivo antagonist activity against FXR in microbeta depleted mouse assessed as reduction in taurocholic acid induced Shp mRNA expression in ileum at 10 mg/kg, po incubated for 2 to 48 hrs. Type of data set: functional, organism-based. To be noted: time 2-48 hrs.

Data set [6] is filed under the species Mus musculus. Description: Anti-NASH activity in GAN diet-induced […] mouse assessed as reduction of bile acid pool size in ileum. In kind it is functional, organism-based.
The species entered for data set [7] is Mus musculus. Briefly: Anti-NASH activity in GAN diet-induced […] mouse assessed as bile acid level in serum. Type of data set: functional, organism-based.
The species named for data set [8] is Mus musculus. Description: Anti-NASH activity in GAN diet-induced […] mouse assessed as bile acid level in gall bladder. In kind it is functional, organism-based.
For data set [9], the target named is T4, Bile acid receptor (Mus musculus). Briefly: In vivo antagonist activity against FXR in microbeta depleted mouse assessed as reduction in taurocholic acid induced FXR mRNA expression in hepatic signaling at 10 mg/kg, po incubated for 2 to 48 hrs. Type of data set: functional, organism-based. To be noted: time 2-48 hrs.
Data set [10] concerns Mus musculus. Briefly: Anti-NASH activity in GAN diet-induced […] mouse assessed as reduction of sphinogo-myelin level in serum administered orally for 12 weeks. Type of data set: functional, organism-based. To be noted: route po.
In data set [11] the target is T4, Bile acid receptor (Mus musculus). Description: In vivo antagonist activity against FXR in microbeta depleted mouse assessed as reduction in taurocholic acid induced Fgf15 mRNA expression in ileum at 10 mg/kg, po incubated for 2 to 48 hrs. To be noted: time 2-48 hrs. Type of data set: functional, organism-based.
For data set [12], the system named is Mus musculus. Briefly: Anti-NASH activity in GAN diet-induced […] mouse assessed as reduction of ceramide level in serum administered orally for 12 weeks. Type of data set: functional, organism-based. The conditions noted are these: route po.
Data set [13] has as its system Mus musculus. Briefly: Anti-NASH activity in GAN diet-induced […] mouse assessed as reduction of dihydroceramide level in serum administered orally for 12 weeks. In kind it is functional, organism-based. To be noted: route po.
The species entered for data set [14] is Mus musculus. Briefly: Anti-NASH activity in GAN diet-induced […] mouse assessed as increase in hepatic bile acid synthesis. In kind it is functional, organism-based.
Data set [15] concerns Mus musculus. Briefly: Anti-NASH activity in GAN diet-induced […] mouse assessed as reduction of glycosyl-ceramide level in serum administered orally for 12 weeks. Type of data set: functional, organism-based. The conditions noted are these: route po.
Data set [16] is filed under the species Mus musculus. Briefly: Anti-NASH activity in GAN diet-induced […] mouse assessed as reduction in bile acid loss in cecum content. Type of data set: functional, organism-based.

Activity calls are given as the source filed them. No cut-off for these calls is given here.

With `CC(C)[C@@H]1CC[C@]2(C(=O)NCC(=O)O)CC[C@]3(C)[C@H](CC[C@@H]4[C@@]5(C)CC[C@@H](O)C(C)(C)[C@@H]5CC[C@]43C)[C@@H]12`, the concentration for half-maximal inhibition (IC50) at 24 h in data set [1] is greater than 100 µM. Also, the outcome in [2] was Active. For the same compound, the IC50 in data set [3] stood at 74 µM. The same compound came in with an EC50 in data set [4] greater than 100 µM.
On to `C[C@H](CCC(=O)NCC(=O)O)[C@H]1CC[C@H]2[C@@H]3[C@@H](O)C[C@@H]4C[C@H](O)CC[C@]4(C)[C@H]3CC[C@]12C` [GLYCOURSODEOXYCHOLIC ACID], for which the outcome in data set [5], in data set [6], in [7], in data set [8], in data set [9] and in data set [10] was Active. Moreover, the result in data set [11], in data set [12], in data set [13], in data set [14], in data set [15] and in data set [16] was Active. In data set [1], the IC50 at 24 h is greater than 100 µM.

One may read the IC50 as the concentration that gives 50% inhibition. A word on the EC50: it is the concentration needed to bring the measured effect to its halfway point. Lower therefore signals greater potency.
